Laboratory results reported in US9642854B2, “Flavanoid compounds and process for preparation thereof” (Council of Scientific & Industrial Research, priority 2009, dated 2017).
In brackets after ≈: the same amount, converted by molar mass. Where two headings read alike, the source gives them in different places. One block for each compound: values may come before it.

What was measured:
H. pylori [1] = experiment: Anti H. pylori screening by disc diffusion susceptibility assay; format: cell-based, Helicobacter pylori; design: key: strongly active (3^+, diameter>30 mm); intermediate active (2^+, ˜20-30 mm diameter); moderately active (1^+, ˜10-20 mm diameter); not active (<10 mm diameter); settings: two doses, majority of the strains
Description: (§1) The discs were impregnated with […] of each of the compounds, dissolved either in ethanol or DMSO, and the zone of inhibition was measured after 72 h of growth under microaerophilic conditions at 37° C. Inhibition zone diameter ranging 10-20 mm was given a score of ^+, 20-30 mm as ^++ and that of >30 mm as ^+++, as obtained employing dose range of […]/disc. The detailed structural information of the molecules is provided under ‘Description of the Compounds’.
(§2) Methods and protocols for the determination of inhibition zone diameter are as stated under Experiment 1, and that of MIC values by microbroth dilution assay as in Experiment 3. ‘Nil’ means zone of inhibition below 10 mm.
(§3) The anti H. pylori activity of all 16 flavonoid molecules, 2 naturally isolated and 14 synthetic derivatives, was screened by disc diffusion sensitivity assay employing 2 clinical strains HP001 and HP002, and three standard strains ATCC® 700392, 43504 and 49503. A 0.5 mL inoculum (10^8 CFU/mL) for each bacterial strain tested was flooded on freshly prepared Brain Heart Infusion (BHI) agar plates supplemented with 7% FCS, 0.5% IsoVitalex and 0.0025% DENT® and the discs (5 mm diameter) containing different compounds or antibiotics (dissolved either in ethanol or DMSO) were placed on the agar surface. After incubation for 3 days in a microaerophilic atmosphere at 37° C., the diameter of the zone of inhibition was measured (Glupczynsky, 1996; McNulty et al., 2002).

H. pylori [2] = experiment: as above; format: cell-based, Helicobacter pylori; settings: 100 and 200 mg/disc (so in the source), 72 h
Description: as §1, §2, §3

H. pylori [3] = experiment: as above; format: cell-based, Helicobacter pylori; design: key: strongly active (diameter>30 mm) and were given a score of 3^+; intermediate active (^˜20-30 mm diameter) and were given a score of 2^+; moderately active (^˜10-20 min diameter) and were given a score of 1^+; not active (>10 mm diameter); settings: 100 and 200 μg/disc, majority of the strains
Description: as §1, §2, §3

H. pylori [4] = experiment: Anti H. pylori spectrum (MIC) by agar dilution method; format: cell-based, Helicobacter pylori; settings: for MIC50 / MIC: Helicobacter pylori; for MIC50: MIC against 50% of the strains of the panel, read-out: MIC50
Description: MIC was determined using agar dilution assay following the CLSI® guidelines. Six clinical isolates and four standard strains were used for this study. Five microlitre of freshly grown 3-day old culture (˜1×10^8 CFU/mL) was streaked in plates containing 2-fold serial dilution of the compounds ranging […], and incubated under microaerophilic condition at 37° C. After 72 h, the plates were inspected visually for absence of growth to assess the MIC values. The experiment was performed in duplicates. MIC50 is defined as the dose (μg/ml) required for killing 50% of the strains.
Plates contained two-fold serial dilutions of the compounds ranging from […]. Five microlitres of 3-day old freshly grown H. pylori culture (^˜10^8 CFU/mL) was inoculated onto drug-containing BHI agar plates supplemented with 7% FCS, 0.5% IsoVitalex and 0.0025% DENT®, which were then incubated for 3 days under microaerophilic condition at 37° C.

H. pylori [5] = experiment: Acid stability study (pH ~2.0, 2 h, then MIC/MBC by microbroth dilution); format: cell-based, Helicobacter pylori; settings: Helicobacter pylori
Description: Details of experimental protocol are described under Experiment 7. MIC/MBC values were determined by microbroth dilution assay.
A 100 μL stock of CPP-1, NMC-1, NMC-2 and CPP-3 (1-2 mg/mL) was treated with 20-30 μL of 0.12 NHCl to bring the pH of the solution to ^˜2.0, and kept at 25° C. for 2 h (Funatogawa et al., 2004). Such acid-treated samples were then serially diluted (2 fold) with medium in 96-well microtitre plates to determine the MIC and the MBC values by microbroth dilution assay as detailed under Experiment 3.

H. pylori [6] = experiment: MIC and MBC by microbroth dilution assay; format: cell-based, Helicobacter pylori; settings: Helicobacter pylori
Description: The compounds, serially diluted ([…]) in Muller Hinton broth containing 5% FCS, were incubated in 96-well microtitre plate containing fresh cultures of HP001 (˜5.5×10^6 CFU/mL) or ATCC® 43504 (2.65×10^6 CFU/ml) in a final volume of […]. After 72-h of incubation under microaerophilic condition at 37° C., […] of cultures wherein no growth had been detected were streaked on fresh brain heart infusion agar plates for MBC determination.
In microbroth dilution assay employing one clinical and one standard strain, both the bacteriostatic and the bactericidal values were determined for all four compounds as well as for clarithromycin (Table 4). Two-fold serial dilutions were prepared in 96-well microtitre plate containing a total volume of 0.1 mL Mueller Hinton broth supplemented with 5% FCS. A 3-day old liquid culture was diluted 10 times in Mueller Hinton broth and 0.1 mL of these cultures was inoculated into each well to give a final concentration of ˜10^6 CFU/mL. The plates were incubated for 3 days in a microaerophilic atmosphere at 37° C. Following incubation, the plates were examined visually, and the lowest concentration showing complete inhibition of growth was recorded as the MIC of the respective compound (Hachem et al., 1996). Aliquots (0.1 mL) of 72-h culture in which no growth had been detected were taken from the wells of the above microtitre plates and used to streak on fresh BHI agar plates.

H. pylori [7] = experiment: Time kill kinetic analyses in biphasic culture; format: cell-based, Helicobacter pylori
[8] = target: T1, pig gastric H^+,K^+-ATPase (Sus scrofa, UniProt P19156); experiment: Gastric H+,K+-ATPase activity assay; format: biochemical
T1 construct: tubulovesicular and apical membranes, isolated from freshly slaughtered pig gastric mucosa; from tissue; host or cells: pig gastric mucosa (membrane fraction by density gradient centrifugation)
Description: The data are averages of 3-4 determinations each carried out in triplicate. The assay system contained 10 mM PIPES-Tris (pH 6.8), 2 mM each of ATP and MgCl2 with or without 10 mM KCl and about […] in a final volume of 1 mL. Both blank and experimental tubes with or without CPP-1 at different concentrations were preincubated with otherwise complete assay mixture at 37° C. for 10 min before initiating the reaction with the substrate ATP. K^+-stimulated activity referred to as H^+,K^+-ATPase activity, was calculated as the difference between the activity in presence of Mg^2+ plus K^+ and the basal activity (Mg^2+-ATPase) in presence of Mg2^+ alone. The specific activity of H^+,K^+-ATPase in control sets was in the range of 40-50 μmole Pi/mg protein/h.
The effect of CPP-1 on gastric H^+K^+-ATPase was investigated. Isolation of pig gastric mucosal membranes, rich in H^+,K^+-ATPase activity, was carried out by density gradient centrifugation technique (Ray, 1978). The enzyme assay system contained 10 mM PIPES-Tris (pH 6.8), 2 mM each of ATP and MgCl with or without 10 mM KCl and about […] in a final volume of 1 mL. Both blank and experimental tubes with or without CPP-1 at different concentrations were preincubated with otherwise complete assay mixture at 37° C. for 10 min before initiating the reaction with the substrate ATP. After appropriate time of incubation with ATP at 37° C., the reaction was terminated with the addition of 1 mL of ice-cold TCA (14%, w/v). The liberated inorganic phosphate (Pi) was estimated essentially by the method of Sanui (1974). K^+-stimulated activity referred to as H^+,K^+-ATPase activity, was calculated as the difference between the activity in presence of Mg^2+ plus K^+ and the basal activity (Mg^2+-ATPase) in presence of Mg^2+ alone. The specific activity of H^+,K^+-ATPase was expressed as micromoles of Pi liberated per hour per milligram protein. The data are averages of 3-4 determinations each carried out in triplicate. The specific activity of H^+,K^+-ATPase in control sets was in the range of 40-50 μmole Pi/mg protein/h.

[9] = ATCC43504, microbroth dilution, ATCC 43504

T1 sequence (P19156 2-1034 limits assumed): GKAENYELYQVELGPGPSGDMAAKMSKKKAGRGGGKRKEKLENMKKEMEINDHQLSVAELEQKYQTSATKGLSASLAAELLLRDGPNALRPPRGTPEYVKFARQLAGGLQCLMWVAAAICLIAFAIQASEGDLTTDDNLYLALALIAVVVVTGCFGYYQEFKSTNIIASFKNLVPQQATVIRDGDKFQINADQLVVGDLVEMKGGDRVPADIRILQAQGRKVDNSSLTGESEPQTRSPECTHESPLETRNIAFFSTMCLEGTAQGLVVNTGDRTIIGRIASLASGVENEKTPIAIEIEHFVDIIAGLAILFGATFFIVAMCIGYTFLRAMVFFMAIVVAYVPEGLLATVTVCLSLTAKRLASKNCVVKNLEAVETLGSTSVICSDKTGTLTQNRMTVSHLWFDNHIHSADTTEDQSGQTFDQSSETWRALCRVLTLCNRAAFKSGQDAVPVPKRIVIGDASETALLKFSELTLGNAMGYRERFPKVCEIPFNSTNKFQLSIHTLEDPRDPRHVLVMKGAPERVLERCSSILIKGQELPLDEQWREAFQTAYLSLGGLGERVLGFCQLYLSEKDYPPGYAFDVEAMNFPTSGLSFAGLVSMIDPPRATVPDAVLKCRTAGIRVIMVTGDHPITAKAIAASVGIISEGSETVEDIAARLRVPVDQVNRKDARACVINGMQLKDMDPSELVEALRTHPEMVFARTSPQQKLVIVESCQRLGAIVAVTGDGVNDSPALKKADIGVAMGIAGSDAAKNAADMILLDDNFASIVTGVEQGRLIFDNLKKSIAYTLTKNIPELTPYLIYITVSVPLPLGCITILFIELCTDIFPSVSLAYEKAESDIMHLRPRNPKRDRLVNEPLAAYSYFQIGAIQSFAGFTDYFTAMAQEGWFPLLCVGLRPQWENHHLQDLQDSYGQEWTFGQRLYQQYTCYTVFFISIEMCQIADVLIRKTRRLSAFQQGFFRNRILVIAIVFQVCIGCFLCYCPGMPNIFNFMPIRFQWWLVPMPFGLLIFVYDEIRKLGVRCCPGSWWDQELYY
T1 sequence (P18434 whole entry partner): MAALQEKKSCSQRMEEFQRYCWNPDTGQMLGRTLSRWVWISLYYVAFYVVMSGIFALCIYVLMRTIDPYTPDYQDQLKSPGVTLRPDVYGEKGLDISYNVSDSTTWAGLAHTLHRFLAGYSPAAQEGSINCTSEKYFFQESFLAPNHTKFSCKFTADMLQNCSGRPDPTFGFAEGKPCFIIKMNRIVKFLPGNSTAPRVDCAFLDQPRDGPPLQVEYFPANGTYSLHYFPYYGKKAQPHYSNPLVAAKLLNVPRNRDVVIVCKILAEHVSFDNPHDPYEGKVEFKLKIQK

Compound: 4-methyl-benzoic acid 5-hydroxy-6-methoxy-4-oxo-2-phenyl-4-H-chromen-yl ester [ORPM-1]
Activity class by inhibition zone diameter (H. pylori [1]): not active
Inhibition zone diameter (score) (H. pylori [2]; ATCC standard strain 43504): Nil (‘Nil’ means zone of inhibition below 10 mm)
Inhibition zone diameter (score) (H. pylori [2]; ATCC standard strain 49503): Nil (‘Nil’ means zone of inhibition below 10 mm)
Inhibition zone diameter (score) (H. pylori [2]; ATCC standard strain 700392): Nil (‘Nil’ means zone of inhibition below 10 mm)
Inhibition zone diameter (score) (H. pylori [2]; clinical strain HP001): + (Inhibition zone diameter ranging 10-20 mm was given a score of ^+)
Inhibition zone diameter (score) (H. pylori [2]; clinical strain HP002): Nil (‘Nil’ means zone of inhibition below 10 mm)
Activity class by inhibition zone diameter (H. pylori [3]): not active

MIC50 (H. pylori [4]; 72 h): ~12.5 µg/mL (≈ 31.7 µM)
MIC (H. pylori [4]; 72 h, panel of 6 clinical isolates and 4 standard strains, read-out: MIC Range): 6.25 to 100 µg/mL (≈ 15.8 to 254 µM)
MIC50 (H. pylori [4]): 12.5 µg/mL (≈ 31.7 µM)
MIC (H. pylori [4]; clinical strain HP001, read-out: MIC): 12.5 µg/mL (≈ 31.7 µM)
MIC (H. pylori [4]; clinical strain HP002, read-out: MIC): 6.25 µg/mL (≈ 15.8 µM)
MIC (H. pylori [4]; clinical strain HP003, read-out: MIC): 12.5 µg/mL (≈ 31.7 µM)
MIC (H. pylori [4]; clinical strain HP004, read-out: MIC): 12.5 µg/mL (≈ 31.7 µM)
MIC (H. pylori [4]; clinical strain HP005, read-out: MIC): 6.25 µg/mL (≈ 15.8 µM)
MIC (H. pylori [4]; clinical strain HP006, read-out: MIC): 12.5 µg/mL (≈ 31.7 µM)
MIC (H. pylori [4]; standard strain 43504, read-out: MIC): 12.5 µg/mL (≈ 31.7 µM)
MIC (H. pylori [4]; standard strain 43629, read-out: MIC): 25 µg/mL (≈ 63.4 µM)
MIC (H. pylori [4]; standard strain 49503, read-out: MIC): 3.12 µg/mL (≈ 7.92 µM)
MIC (H. pylori [4]; standard strain 700392, read-out: MIC): 12.5 µg/mL (≈ 31.7 µM)
MIC Range (H. pylori [4]; panel of 6 clinical isolates and 4 standard strains): 3.125 to 12.5 µg/mL
MIC (H. pylori [5]; 2 h, pH ~2.0, 2 h, 25° C., 43504, read-out: MIC, Acid treated): 25 mg/mL (≈ 63400 µM)
MIC (H. pylori [5]; 2 h, pH ~2.0, 2 h, 25° C., HP001, read-out: MIC, Acid treated): 25 mg/mL (≈ 63400 µM)
MIC (H. pylori [5]; not acid treated, 43504, read-out: MIC, Control): 12.5 mg/mL (≈ 31700 µM)
MIC (H. pylori [5]; not acid treated, HP001, read-out: MIC, Control): 12.5 mg/mL (≈ 31700 µM)
MIC (H. pylori [6]; [9]): 12.5 µg/mL (≈ 31.7 µM)
MIC (H. pylori [6]; microbroth dilution, HP001): 12.5 µg/mL (≈ 31.7 µM)
Compound: CN1CCN(CCCOc2cc(O)c3c(=O)cc(-c4ccccc4)oc3c2)CC1 [NMC-2, 5-Hydroxy-7-[3-(4-methyl-piperazin-1-yl)-propoxy]-2-phenyl-chromen-4-one]
MBC (H. pylori [5]; 2 h, pH ~2.0, 2 h, 25° C., 43504, read-out: MBC, Acid treated): < 50 mg/mL
MBC (H. pylori [5]; 2 h, pH ~2.0, 2 h, 25° C., HP001, read-out: MBC, Acid treated): 50 mg/mL (≈ 127000 µM)
MBC (H. pylori [5]; not acid treated, 43504, read-out: MBC, Control): 50 mg/mL (≈ 127000 µM)
MBC (H. pylori [5]; not acid treated, HP001, read-out: MBC, Control): 25 mg/mL (≈ 63400 µM)
MBC (H. pylori [6]; [9]): 50 µg/mL (≈ 127 µM)
MBC (H. pylori [6]; microbroth dilution, HP001): 25 µg/mL (≈ 63.4 µM)
Inhibition zone diameter (score) (H. pylori [2]; ATCC standard strain 43504): + (Inhibition zone diameter ranging 10-20 mm was given a score of ^+)
Inhibition zone diameter (score) (H. pylori [2]; ATCC standard strain 49503): + (Inhibition zone diameter ranging 10-20 mm was given a score of ^+)
Inhibition zone diameter (score) (H. pylori [2]; ATCC standard strain 700392): + (Inhibition zone diameter ranging 10-20 mm was given a score of ^+)
Inhibition zone diameter (score) (H. pylori [2]; clinical strain HP001): + (Inhibition zone diameter ranging 10-20 mm was given a score of ^+)
Inhibition zone diameter (score) (H. pylori [2]; clinical strain HP002): ++ (20-30 mm as ^++)
time to complete killing (H. pylori [7]; ATCC 43504, 2×MIC (clarithromycin 0.08, CPP-1 and NMC-1 12.5, NMC-2 and CPP-3 25 μg/mL)): ≤ 12 h
killing at MIC dose (H. pylori [7]; ATCC 43504, MIC ([…])): could not produce complete killing
time at which killing/inhibition became evident (H. pylori [7]; HP001, biphasic culture): > 9 h
killing at MIC dose (1×MIC) (H. pylori [7]; HP001, up to 36 h): did not kill the bacteria completely even at 36 h

Percent inhibition of H^+, K^+-ATPase activity ([8]; 1 mg/assay (so in the source)): 20%
Percent inhibition of H^+, K^+-ATPase activity ([8]; 10 mg/assay (so in the source)): about 80%
inhibition of H^+,K^+-ATPase ([8]; dose range of 1-10 μg/assay): 20-80%
Compound: COc1ccc2[nH]c([S+]([O-])Cc3ncc(C)c(OC)c3C)nc2c1 (stereo not drawn) [Omeprazole, reference compound]
